Test results taken from PubChem BioAssay (NCI).
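Abbreviation: GI50, concentration required for 50% inhibition of growth. TGI: concentration producing complete growth inhibition.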

What was measured:
Assay in all cases: NCI tumour cell line growth inhibition, 384-well format
[1] = tested on: NCI-H23 lung
[2] = tested on: CCRF-CEM leukemia
[3] = tested on: SNB-19 CNS
[4] = tested on: IGROV1 ovarian
[5] = tested on: A498 renal
[6] = tested on: SW-620 colon
[7] = tested on: 786-0 renal
[8] = tested on: NCI-H460 NSCLC
[9] = tested on: HCT-15 colon
[10] = tested on: HOP-62 NSCLC
[11] = tested on: A549 NSCLC
[12] = tested on: HS 578T breast
[13] = tested on: ACHN renal
[14] = tested on: K-562 leukemia
[15] = tested on: SK-OV-3 ovarian
[16] = tested on: SNB-75 CNS
[17] = tested on: UACC-257 melanoma
[18] = tested on: DU-145 prostate
[19] = tested on: OVCAR-5 ovarian
[20] = tested on: HT29 colon
[21] = tested on: OVCAR-8 ovarian
[22] = tested on: OVCAR-3 ovarian
[23] = tested on: NCI-H226 lung
[24] = tested on: HCC-2998 colon
[25] = tested on: MDA-MB-231 breast
[26] = tested on: CAKI-1 renal
[27] = tested on: SF-268 CNS
[28] = tested on: U251 glioblastoma
[29] = tested on: MCF7 breast
[30] = tested on: RPMI-8226 leukemia
[31] = tested on: LOX IMVI melanoma
[32] = tested on: SF-539 CNS
[33] = tested on: MALME-3M melanoma
[34] = tested on: UO-31 renal
[35] = tested on: SK-MEL-5 melanoma
[36] = tested on: KM12 colon
[37] = tested on: NCI-H522 lung
[38] = tested on: RXF 393 renal
[39] = tested on: NCI/ADR-RES ovarian
[40] = tested on: T-47D breast
[41] = tested on: M14 melanoma
[42] = tested on: COLO 205 colon
[43] = tested on: MOLT-4 leukemia
[44] = tested on: SF-295 CNS
[45] = tested on: EKVX NSCLC
[46] = tested on: SN12C renal
[47] = tested on: HL-60(TB) leukemia
[48] = tested on: SK-MEL-28 melanoma
[49] = tested on: UACC-62 melanoma
[50] = tested on: MDA-MB-468 breast
[51] = tested on: BT-549 breast
[52] = tested on: NCI-H322M lung
[53] = tested on: HOP-92 NSCLC
[54] = tested on: OVCAR-4 ovarian
[55] = tested on: SR leukemia

With `NS(=O)(=O)OC[C@@H]1C[C@@H](n2ccc3c(NC4CCc5ccccc54)ncnc32)C[C@@H]1O` (stereo not given in full) the GI50 [1] was 212 nM, the TGI [1] was 1380 nM and the GI50 [2] was 24.6 nM. For the same compound, the TGI [2] was 126 nM, the GI50 [3] was 372 nM and the TGI [3] was 28500 nM. For the same compound, the GI50 [4] was 257 nM, the TGI [4] was 4400 nM and the GI50 [5] was 43.8 nM. The TGI [5] was 10400 nM, the GI50 [6] was 602 nM and the TGI [6] was 15700 nM. The GI50 [7] was 226 nM, the TGI [7] was 1130 nM and the GI50 [8] was 274 nM. The TGI [8] was 958 nM, the GI50 [9] was 277 nM and the TGI [9] was 11200 nM. It also gave a GI50 [10] of 114 nM, a TGI [10] of 372 nM and a GI50 [11] of 405 nM. The TGI [11] was 13800 nM, the GI50 [12] was 186 nM and the TGI [12] was 13200 nM. It also gave a GI50 [13] of 227 nM, a TGI [13] of 735 nM and a GI50 [14] of 62.7 nM. For the same compound, the TGI [14] was 10900 nM, the GI50 [15] was 206 nM and the TGI [15] was 703 nM. The GI50 [16] was 178 nM, the TGI [16] was 627 nM and the GI50 [17] was 162 nM. It also gave a TGI [17] of 10500 nM, a GI50 [18] of 68.6 nM and a TGI [18] of 14000 nM. It also gave a GI50 [19] of 554 nM, a TGI [19] of 13600 nM and a GI50 [20] of 256 nM. The TGI [20] was 11600 nM, the GI50 [21] was 119 nM and the TGI [21] was 316 nM. The GI50 [22] was 43.2 nM, the TGI [22] was 3550 nM and the GI50 [23] was 112 nM. It also gave a TGI [23] of 804 nM, a GI50 [24] of 434 nM and a TGI [24] of 5530 nM. For the same compound, the GI50 [25] was 216 nM, the TGI [25] was 2730 nM and the GI50 [26] was 76.4 nM. The TGI [26] was over 100000 nM, the GI50 [27] was 238 nM and the TGI [27] was 4970 nM. For the same compound, the GI50 [28] was 254 nM, the TGI [28] was 12500 nM and the GI50 [29] was 32.9 nM. It also gave a TGI [29] of 424 nM, a GI50 [30] of 126 nM and a TGI [30] of 1560 nM. For the same compound, the GI50 [31] was 39.9 nM, the TGI [31] was 168 nM and the GI50 [32] was 85.3 nM. The TGI [32] was 260 nM, the GI50 [33] was 202 nM and the TGI [33] was 766 nM. It also gave a GI50 [34] of 3180 nM, a TGI [34] of over 100000 nM and a GI50 [35] of 34.3 nM. For the same compound, the TGI [35] was 223 nM, the GI50 [36] was 255 nM and the TGI [36] was 4950 nM. The GI50 [37] was 42.8 nM, the TGI [37] was 844 nM and the GI50 [38] was 60.1 nM. The TGI [38] was 304 nM, the GI50 [39] was 1520 nM and the TGI [39] was 11300 nM. For the same compound, the GI50 [40] was 142 nM, the TGI [40] was 15800 nM and the GI50 [41] was 151 nM. For the same compound, the TGI [41] was 1050 nM, the GI50 [42] was 40.6 nM and the TGI [42] was 292 nM. For the same compound, the GI50 [43] was 29 nM, the TGI [43] was 117 nM and the GI50 [44] was 176 nM. It also gave a TGI [44] of 333 nM, a GI50 [45] of 2430 nM and a TGI [45] of over 100000 nM. For the same compound, the GI50 [46] was 370 nM, the TGI [46] was 4360 nM and the GI50 [47] was 10.9 nM. It also gave a TGI [47] of 26.6 nM, a GI50 [48] of 163 nM and a TGI [48] of 1880 nM. For the same compound, the GI50 [49] was 20.2 nM, the TGI [49] was 137 nM and the GI50 [50] was 13.5 nM. For the same compound, the TGI [50] was 64.9 nM, the GI50 [51] was 56.7 nM and the TGI [51] was 491 nM. It also gave a GI50 [52] of 333 nM, a TGI [52] of 11100 nM and a GI50 [53] of 439 nM. For the same compound, the TGI [53] was 18800 nM, the GI50 [54] was 210 nM and the TGI [54] was 799 nM. It also gave a GI50 [55] of 24.3 nM and a TGI [55] of 79.1 nM.
